Data taken from US20250195508A1, “COMPOUNDS AND COMPOSITIONS FOR ANITMALARIAL THERAPEUTIC AND PROPHYLACTIC USE” (UNIVERSITY OF CENTRAL FLORIDA RESEARCH FOUNDATION, INC., priority 2022, published 2025).
Where two headings read alike, the source gives them in different places.

Columns and labels:
P. falciparum Dd2 [1] = test: 72 h SYBR Green I assay (Dd2 Proliferation Assay); format: cell-based
Procedure: Several analogs were synthesized based on the structure of TL5-135 for further study. […] For the data in Table 1, compounds were subjected to in vitro biochemical kinase assays done using recombinant human ephrin type-A receptor 2 (EPHA2) (expressed in insect cells) in a Z′-LYTE® FRET-based kinase assay. P. falciparum Dd2 EC50 was determined using the standard 72 hour SYBR Green I assay (Dd2 Proliferation Assay) as known in the art. […] The structures of compoundsTL5-134, TL5-139, and TL5-145 are shown below.
In vitro biochemical kinase assays were done using recombinant human EPHA2 (expressed in insect cells) in a Z′-LYTE® FRET-based kinase assay. P. falciparum Dd2 EC50 was determined using the standard 72 h SYBR Green I assay.
Asynchronous blood stage P. falciparum Dd2 cultures were plated at 1% parasitemia and 1% hematocrit in a 96-well plate and incubated with serial dilutions of compound for 72 hours at 37° C. in 5% CO2. DMSO concentrations were kept at a sub-lethal percentage (<0.2%). Five micromolar chloroquine was used as a negative parasite growth control. Plates were then frozen at −80° C. and thawed, and 100 μL SYBR Green I-containing lysis buffer (20 mM Tris-HCl, 5 mM EDTA, 0.8% Triton X-100, 0.08% saponin, and 0.0001% SYBR Green I) was added to the wells. After incubation for 45 minutes at room temperature protected from light, fluorescence emission was read with a multimode microplate reader, at 485 nm excitation and 530 nm emission. Results were normalized using untreated and chloroquine-treated controls, and EC50 was determined with CDD Vault.
To establish the utility of kinase inhibitor compounds synthesized in the Gray laboratory as a source of novel antimalarial activities, the libraries (containing 1,100 compounds) were screened using the well-established SYBR Green I-based fluorescence assay as known in the art. This screen yielded 34 compounds with EC50<500 nM in the CQ^R Dd2 strain. These hits were subjected to counter-screening against human HepG2 cells using CellTiter 96® AQueous (Promega™) MTS-based cell proliferation assay to identify asexual and liver stage antiplasmodial hits.
P. falciparum Dd2 EC50 was determined using SYBR Green I assay. For the selectivity index ([…]) cytotoxicity was determined using CellTiter 96® AQueous MTS. The liver stage assay was performed using P. berghei luciferase expressing parasites. All assays were performed with technical quadruplicates and 3 biological replicates. Assays have a Z′ factor >0.7.

Pb-Luc sporozoites = test: Therapeutic assay, 4-day Peters test against Pb-Luc sporozoites; format: in vivo, mice; conditions: 4 doses of 15 mg/kg at 6, 18, 30, 42 hours post infection
Procedure: (§1) TL5-135 was dissolved or resuspended in a suspending vehicle consisting of 30% DMSO, 1% methylcellulose, 0.5% TWEEN-80, and 68.5% ultrapure water. GNF179 was resuspended in 30% DMSO, 30% PEG400, 5% TWEEN-80, 35% saline, and administered intravenously.
(§2) For prophylaxis assays, a single dose of […] was administrated 6 hours before infection. For therapeutic assays, in a 4-day's Peters test, 4 doses (each 15 mg/kg) were administrated 6, 18, 30, and 42 hours post infection.
(§3) The antimalarial activity was measured as a percent reduction in parasitemia from day one until day twelve post-infection.
However, the mice treated with TL5-135 as a therapeutic had about 2.4% parasitemia after 12 days post-infection (all negative control mice died between days 11-13). The parasitemia on day 21 (21 days post-infection) for the group of mice was 35%.
(§4) Groups of 5 mice were infected with 100,000 Pb-Luc sporozoites by IV injection. Prophylactic (single dose of 50 mg/kg through IV injection, 6 hour before infection) and therapeutic (4-day Peters test, 4 doses of 15 mg/kg each time were administrated post-infection at 6, 18, 30, and 42 hours post infection (hpi) and the activity of the compounds was evaluated. See FIG. 8A. The parasitemia was estimated after flow cytometric enumeration of rodent malaria parasite Pb-Luc-infected red blood cells (RBS) stained with SYBR Green I, from day 3 until 20.
(§5) TL5-135 and GNF179 antimalarial compounds were tested against Pb-Luc sporozoites. Prophylactic activity (single dose of 15 mg/kg through an IV injection, 6 hours before infection) and therapeutic activity (4-day Peters test, 4 doses of 15 mg/kg each time was administrated at 6, 18, 30, and 42 hpi of the TL5-135 antimalarial compound was evaluated. As before, groups of five mice were infected with 100,000 Pb-Luc sporozoites by IV injection. The parasitemia was estimated after flow cytometric enumeration of rodent malaria parasite Pb-Luc-infected red blood cells (RBS) stained with SYBR Green I, from day 3 until day 20. See FIG. 8B.

[2] = system: P. berghei luc sporozoites (Pb-Luc); test: Prophylaxis assay, single IV dose 6 hours before Pb-Luc sporozoite infection; format: in vivo, mice; conditions: single dose 15 mg/kg 6 hours before infection; after 22 days
Procedure: as §1, §2, §3
Infection was initiated using 100,000 P. berghei luc sporozoites (Pb-Luc). The drugs were administered IV at 50 mg/kg, single dose 6 hours prior. I: infected, UI: uninfected.
as §4, §5

P. falciparum Dd2 [3] = test: Rate of killing assay; format: cell-based; conditions: 10×EC50, 12-hour exposure then wash off
Procedure: Asynchronous P. falciparum Dd2 cultures were plated at 1% parasitemia, 4% hematocrit into a 24-well plate, incubated at 37° C. in 5% CO2. Wells were treated with 10×EC50 of compound for 12, 24, or 48 hours before the compound was removed. Every 24 hours thereafter for 4 days total, culture samples were washed in 0.5% BSA and stained with 1×SYBR Green I and 60 μM MitoTracker Deep Red FM for 20 minutes at 37° C. After another wash in 0.5% BSA, samples were resuspended in PBS and analyzed via flow cytometry with a CytoFLEX S™, with 100,000 events recorded per sample. For gating, the following controls were used: uninfected RBCs, untreated culture, DHA-treated culture, and untreated culture without MitoTracker stain. Viable parasite percentage was determined by finding the fraction of SYBR Green/MitoTracker double positive cells from the total events. Analysis was performed with FlowJo software Version 10.
Asynchronous cultures of P. falciparum Dd2 parasites were treated with 10×EC50 of the indicated compound for 12 hours prior to compound wash off. Flow cytometry with SYBR Green I (nuclear dye) and Mitotracker Deep Red FM (mitochondria staining) was done after compound wash-off every 24 hours after for […] (100,000 events/sample) to track parasitemia (data from 3 biological replicates±SEM).

[4] = 72 hour SYBR Green I, Table 2, read-out: Dd2 EC50 (nM) ± SD
[5] = Plasmodium falciparum, DD2, 72 h, read-out: Antiplasmodial Dd2 EC50 (nM) ± SD
[6] = Plasmodium falciparum, DD2, 72 hour SYBR Green I, Table 2, read-out: Dd2 EC50 (nM) ± SD

| EC50 (P. falciparum Dd2 [1]; [4]) [nM] | SMILES | also measured |
| --- | --- | --- |
| 164 ± 14.7 | CCN1CCN(Cc2ccc(NC(=O)c3cc(Cl)cc(NC(=O)c4cncc(C)c4)c3)cc2C(F)(F)F)CC1 [LSW-03-007] | – |
| 99.6 ± 8.6 | CCN1CCN(Cc2ccc(NC(=O)c3cc(Cl)cc(NC(=O)c4cncc(-c5cccs5)c4)c3)cc2)CC1 [LSW-03-030] | – |
| 43.8 ± 7.9 | CCN1CCN(Cc2ccc(NC(=O)c3cc(Cl)cc(NC(=O)c4cncc(-c5ccc(C#N)cc5)c4)c3)cc2C(F)(F)F)CC1 [LSW-03-077] | – |
| 99.5 ± 12.7 | CCN1CCN(Cc2ccc(NC(=O)c3cc(F)cc(NC(=O)c4cncc(-c5cccs5)c4)c3)cc2C(F)(F)F)CC1 [LSW-03-054] | – |
| – | CCN1CCN(Cc2ccc(NC(=O)c3cc(NC(=O)c4cncc(-c5cccs5)c4)cc(OC)c3)cc2C(F)(F)F)CC1 [TL5-134] | EC50 (P. falciparum Dd2 [1]; [5]): 341 nM |
| – | CC1(C)c2nc(-c3ccc(F)cc3)c(Nc3ccc(Cl)cc3)n2CCN1C(=O)CN [GNF179, reference compound] | Condition of mice after therapeutic treatment (Pb-Luc sporozoites): healthy and without parasites; Condition of mice after prophylactic treatment [2]: still healthy and alive |
| – | CCN1CCN(Cc2ccc(NC(=O)c3cc(Cl)cc(NC(=O)N4CCN(C)CC4)c3)cc2C(F)(F)F)CC1 [LSW-03-080] | EC50 (P. falciparum Dd2 [1]; [6]): 2120 nM |
| 108 ± 9.08 | CCN1CCN(Cc2ccc(NC(=O)c3cc(Br)cc(NC(=O)c4cncc(-c5cccs5)c4)c3)cc2C(F)(F)F)CC1 [LSW-03-071] | – |
| 86.6 ± 2.92 | CCN1CCN(Cc2ccc(NC(=O)c3cc(NC(=O)c4cncc(-c5cccs5)c4)cc(C(F)(F)F)c3)cc2C(F)(F)F)CC1 [LSW-03-055] | – |
| – | CCN1CCN(Cc2ccc(NC(=O)c3cncc(NC(=O)c4cncc(-c5cccs5)c4)c3)cc2C(F)(F)F)CC1 [TL5-139] | EC50 (P. falciparum Dd2 [1]; [5]): 191 nM |
| 97.2 ± 23.3 | CCN1CCN(Cc2ccc(NC(=O)c3cc(Cl)cc(NC(=O)c4cncc(-c5ccco5)c4)c3)cc2C(F)(F)F)CC1 [LSW-03-006] | – |
| – | CCN1CCN(Cc2ccc(NC(=O)c3cc(Cl)cc(NC(=O)c4cccnc4)c3)cc2C(F)(F)F)CC1 [LSW-03-008] | EC50 (P. falciparum Dd2 [1]; [6]): 407 ± 56 nM |
| 732 ± 124 | O=C(Nc1ccnc(N2CCOCC2)c1)c1cc(Cl)cc(NC(=O)c2cncc(-c3cccs3)c2)c1 [LSW-03-081] | – |
| – | C[C@H]1[C@@H](O)O[C@@H]2O[C@@]3(C)CC[C@H]4[C@H](C)CC[C@@H]1[C@@]24OO3 [dihydroartemisinin (DHA), dihydroartemisinin, reference compound] | Killing profile (P. falciparum Dd2 [3]): pronounced irreversible killing |
| – | CCN1CCN(Cc2ccc(NC(=O)c3cc(Cl)cc(NCc4cncc(-c5cccs5)c4)c3)cc2C(F)(F)F)CC1 [LSW-03-014] | EC50 (P. falciparum Dd2 [1]; [6]): 315 ± 18.7 nM |
| 422 ± 36 | O=C(Nc1cccc(C(F)(F)F)c1)c1cc(Cl)cc(NC(=O)c2cncc(-c3cccs3)c2)c1 [LSW-03-033] | – |
| 314 ± 17.4 | CCN1CCN(Cc2ccc(NC(=O)c3cc(Cl)cc(NC(=O)c4cccc(-c5cccs5)c4)c3)cc2C(F)(F)F)CC1 [LSW-03-015] | – |
| 867 ± 68.3 | CCN1CCN(Cc2ccc(NC(=O)c3cc(NC(=O)c4cncc(-c5cccs5)c4)ccc3F)cc2C(F)(F)F)CC1 [LSW-03-067] | – |
| 104 ± 8.67 | CCN1CCN(Cc2ccc(NC(=O)c3cc(NC(=O)c4cncc(-c5cccs5)c4)cc(Cl)c3F)cc2C(F)(F)F)CC1 [LSW-03-059] | – |
| – | CCN1CCN(Cc2ccc(NC(=O)c3ccnc(NC(=O)c4cncc(-c5cccs5)c4)c3)cc2C(F)(F)F)CC1 [TL5-145] | EC50 (P. falciparum Dd2 [1]; [5]): 391 nM |
| 330 ± 27.4 | CCN1CCN(Cc2ccc(NC(=O)c3cc(Cl)cc(NC(=O)c4cncnc4)c3)cc2C(F)(F)F)CC1 [LSW-03-072] | – |
